Structures can show the parent of a compound that is named as a salt.
Target: DPP-IV enzyme (Homo sapiens, UniProt P27487)
Assay: Assay for determining DPP-IV inhibitory activity (DPP-IV-Glo luminescence)
Experimental: IC50 was determined by a NovoStar ELIASA (BMG Co. German);
The definition of inhibitory rate: [1−(S−B)/(N−B)]*100%

DPP-IV enzyme, sequence (P27487 whole entry): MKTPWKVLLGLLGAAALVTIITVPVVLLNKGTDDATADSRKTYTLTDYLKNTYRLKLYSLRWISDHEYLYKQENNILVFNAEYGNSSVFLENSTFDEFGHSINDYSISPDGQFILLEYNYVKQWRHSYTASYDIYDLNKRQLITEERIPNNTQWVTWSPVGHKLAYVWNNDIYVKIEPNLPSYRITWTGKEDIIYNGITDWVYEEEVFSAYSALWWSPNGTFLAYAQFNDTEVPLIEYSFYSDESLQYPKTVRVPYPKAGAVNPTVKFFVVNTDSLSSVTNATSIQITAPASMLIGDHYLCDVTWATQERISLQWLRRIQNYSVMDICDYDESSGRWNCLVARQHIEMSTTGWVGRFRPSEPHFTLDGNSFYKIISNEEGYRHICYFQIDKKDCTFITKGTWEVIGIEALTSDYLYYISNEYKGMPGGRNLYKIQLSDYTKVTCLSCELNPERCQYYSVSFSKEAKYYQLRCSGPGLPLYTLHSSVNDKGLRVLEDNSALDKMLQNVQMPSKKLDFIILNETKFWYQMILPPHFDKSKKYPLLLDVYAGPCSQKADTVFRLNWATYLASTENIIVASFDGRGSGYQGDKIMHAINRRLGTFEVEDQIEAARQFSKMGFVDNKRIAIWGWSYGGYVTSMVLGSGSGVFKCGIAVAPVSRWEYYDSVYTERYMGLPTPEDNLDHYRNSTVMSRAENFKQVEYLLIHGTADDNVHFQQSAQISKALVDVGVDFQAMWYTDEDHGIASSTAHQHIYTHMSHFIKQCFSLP

Compound | IC50
CS(=O)(=O)CCNC(=O)c1nc(C(F)(F)F)n2c1CN(C(=O)C[C@H](N)Cc1cc(F)c(F)cc1F)CC2 [Example 2, (R)-7-[3-Amino-4-(2,4,5-trifluoro-phenyl)-butyryl]-3-trifluoromethyl-5,6,7,8-tetrahydro-imidazo[1,5-a]pyrazine-1-carboxylic acid (2-methanesulfonyl-ethyl)-amide hydrochloride] | 0.008 µM
N[C@@H](CC(=O)N1CCn2c(C(F)(F)F)nc(C(=O)N3CCS(=O)(=O)CC3)c2C1)Cc1cc(F)c(F)cc1F [Example 6, (R)-3-Amino-1-[1-(1,1-dioxo-thiomorpholine-4-carbonyl)-3-trifluoromethyl-5,6-dihydro-8H-imidazo[1,5-a]pyrazin-7-yl]-4-(2,4,5-trifluoro-phenyl)-butan-1-one hydrochloride] | 0.031 µM
N#CCNC(=O)c1nc(C(F)(F)F)n2c1CN(C(=O)C[C@H](N)Cc1cc(F)c(F)cc1F)CC2 [Example 4, (R)-7-[3-Amino-4-(2,4,5-trifluoro-phenyl)-butyryl]-3-trifluoromethyl-5,6,7,8-tetrahydro-imidazo[1,5-a]pyrazine-1-carboxylic acid cyanomethyl-amide hydrochloride] | 0.022 µM
N[C@@H](CC(=O)N1CCn2c(C(F)(F)F)nc(C(=O)N3CCOCC3)c2C1)Cc1cc(F)c(F)cc1F [Example 3, (R)-3-Amino-1-[1-(morpholine-4-carbonyl)-3-trifluoromethyl-5,6-dihydro-8H-imidazo[1,5-a]pyrazin-7-yl]-4-(2,4,5-trifluoro-phenyl)-butan-1-one hydrochloride] | 0.089 µM
CN1CCN(C(=O)c2nc(C(F)(F)F)n3c2CN(C(=O)C[C@H](N)Cc2cc(F)c(F)cc2F)CC3)CC1 [Example 5, (R)-3-Amino-1-[1-(4-methyl-piperazine-1-carbonyl)-3-trifluoromethyl-5,6-dihydro-8H-imidazo[1,5-a]pyrazin-7-yl]-4-(2,4,5-trifluoro-phenyl)-butan-1-one dihydrochloride] | 0.027 µM
N[C@@H](CC(=O)N1CCn2c(C(F)(F)F)nc(C(=O)O)c2C1)Cc1cc(F)c(F)cc1F [Example 10, (R)-7-[3-Amino-4-(2,4,5-trifluoro-phenyl)-butyryl]-3-trifluoromethyl-5,6,7,8-tetrahydro-imidazo[1,5-a]pyrazine-1-carboxylic acid hydrochloride] | 0.021 µM
CNC(=O)c1nc(C(F)(F)F)n2c1CN(C(=O)C[C@H](N)Cc1cc(F)c(F)cc1F)CC2 [Example 8, (R)-7-[3-Amino-4-(2,4,5-trifluoro-phenyl)-butyryl]-3-trifluoromethyl-5,6,7,8-tetrahydro-imidazo[1,5-a]pyrazine-1-carboxylic acid methylamide hydrochloride] | 0.008 µM
N[C@@H]1CCCN(C(=O)c2nc(C(F)(F)F)n3c2CN(C(=O)C[C@H](N)Cc2cc(F)c(F)cc2F)CC3)C1 [Example 11, (R)-3-Amino-1-[1-(3-amino-piperidine-1-carbonyl)-3-trifluoromethyl-5,6-dihydro-8H-imidazo[1,5-a]pyrazin-7-yl]-4-(2,4,5-trifluoro-phenyl)-butan-1-one dihydrochloride] | 0.216 µM
CN(C)C(=O)c1nc(C(F)(F)F)n2c1CN(C(=O)C[C@H](N)Cc1cc(F)c(F)cc1F)CC2 [Example 9, (R)-7-[3-Amino-4-(2,4,5-trifluoro-phenyl)-butyryl]-3-trifluoromethyl-5,6,7,8-tetrahydro-imidazo[1,5-a]pyrazine-1-carboxylic acid dimethylamide hydrochloride] | 0.075 µM
NC(=O)C1CCN(C(=O)c2nc(C(F)(F)F)n3c2CN(C(=O)C[C@H](N)Cc2cc(F)c(F)cc2F)CC3)CC1 [Example 7, (R)-1-{7-[3-Amino-4-(2,4,5-trifluoro-phenyl)-butyryl]-3-trifluoromethyl-5,6,7,8-tetrahydro-imidazo[1,5-a]pyrazine-1-carbonyl}-piperidine-4-carboxylic acid amide hydrochloride] | 0.025 µM

Results, then the molecule that gave them:

IC50 | Compound
0.025 µM | N[C@@H](CC(=O)N1CCn2c(C(F)(F)F)nc(C(=O)NC3CC3)c2C1)Cc1cc(F)c(F)cc1F [Example 15, (R)-7-[3-Amino-4-(2,4,5-trifluoro-phenyl)-butyryl]-3-trifluoromethyl-5,6,7,8-tetrahydro-imidazo[1,5-a]pyrazine-1-carboxylic acid cyclopropylamide hydrochloride]
0.059 µM | N[C@@H](CC(=O)N1CCn2c(C(F)(F)F)nc(C(=O)N3CCCC3)c2C1)Cc1cc(F)c(F)cc1F [Example 12, (R)-3-Amino-1-[1-(pyrrolidine-1-carbonyl)-3-trifluoromethyl-5,6-dihydro-8H-imidazo[1,5-a]pyrazin-7-yl]-4-(2,4,5-trifluoro-phenyl)-butan-1-one hydrochloride]
0.047 µM | N[C@@H](CC(=O)N1CCn2c(C(F)(F)F)nc(C(=O)N3CC[C@@H](O)C3)c2C1)Cc1cc(F)c(F)cc1F [Example 14, (R)-3-Amino-1-[1-((R)-3-hydroxy-pyrrolidine-1-carbonyl)-3-trifluoromethyl-5,6-dihydro-8H-imidazo[1,5-a]pyrazin-7-yl]-4-(2,4,5-trifluoro-phenyl)-butan-1-one hydrochloride]
0.016 µM | COC(=O)c1nc(C(F)(F)F)n2c1C(C)N(C(=O)C[C@H](N)Cc1cc(F)c(F)cc1F)CC2 (stereo partly drawn) [Example 39, (R)-7-[3-Amino-4-(2,4,5-trifluoro-phenyl)-butyryl]-8-methyl-3-trifluoromethyl-5,6,7,8-tetrahydro-imidazo[1,5-a]pyrazine-1-carboxylic acid methyl ester hydrochloride]
0.221 µM | CC(C)(C)OC(=O)c1nc(C(F)(F)F)n2c1CN(C(=O)C[C@H](N)Cc1cc(F)c(F)cc1F)CC2 [Example 36, (R)-7-[3-Amino-4-(2,4,5-trifluoro-phenyl)-butyryl]-3-trifluoromethyl-5,6,7,8-tetrahydro-imidazo[1,5-a]pyrazine-1-carboxylic acid tert-butyl ester hydrochloride]
0.018 µM | CCNC(=O)c1nc(C(F)(F)F)n2c1CN(C(=O)C[C@H](N)Cc1cc(F)c(F)cc1F)CC2 [Example 42, (R)-7-[3-Amino-4-(2,4,5-trifluoro-phenyl)-butyryl]-3-trifluoromethyl-5,6,7,8-tetrahydro-imidazo[1,5-a]pyrazine-1-carboxylic acid ethylamide]
0.041 µM | N[C@@H](CC(=O)N1CCn2c(C(F)(F)F)nc(C(=O)N3CCNCC3)c2C1)Cc1cc(F)c(F)cc1F [Example 13, (R)-3-Amino-1-[1-(piperazine-1-carbonyl)-3-trifluoromethyl-5,6-dihydro-8H-imidazo[1,5-a]pyrazin-7-yl]-4-(2,4,5-trifluoro-phenyl)-butan-1-one dihydrochloride]
0.063 µM | CCCCNC(=O)c1nc(C(F)(F)F)n2c1CN(C(=O)C[C@H](N)Cc1cc(F)c(F)cc1F)CC2 [Example 43, (R)-7-[3-Amino-4-(2,4,5-trifluoro-phenyl)-butyryl]-3-trifluoromethyl-5,6,7,8-tetrahydro-imidazo[1,5-a]pyrazine-1-carboxylic acid butylamide]
0.031 µM | CCOC(=O)OC(C)OC(=O)c1nc(C(F)(F)F)n2c1CN(C(=O)C[C@H](N)Cc1cc(F)c(F)cc1F)CC2 (stereo partly drawn) [Example 34, (R)-7-[3-Amino-4-(2,4,5-trifluoro-phenyl)-butyryl]-3-trifluoromethyl-5,6,7,8-tetrahydro-imidazo[1,5-a]pyrazine-1-carboxylic acid (1-ethoxycarbonyloxy)-ethyl ester hydrochloride]
0.005 µM | COC(=O)c1nc(C(F)(F)F)n2c1[C@@H](C)N(C(=O)C[C@H](N)Cc1cc(F)c(F)cc1F)CC2 [Example 41, (R)-7-[3-Amino-4-(2,4,5-trifluoro-phenyl)-butyryl]-(R)-8-methyl-3-trifluoromethyl-5,6,7,8-tetrahydro-imidazo[1,5-a]pyrazine-1-carboxylic acid methyl ester hydrochloride]
0.052 µM | CCCNC(=O)c1nc(C(F)(F)F)n2c1CN(C(=O)C[C@H](N)Cc1cc(F)c(F)cc1F)CC2 [Example 44, (R)-7-[3-Amino-4-(2,4,5-trifluoro-phenyl)-butyryl]-3-trifluoromethyl-5,6,7,8-tetrahydro-imidazo[1,5-a]pyrazine-1-carboxylic acid propylamide]
0.031 µM | CCOC(=O)c1nc(C(F)(F)F)n2c1CN(C(=O)C[C@H](N)Cc1cc(F)c(F)cc1F)CC2 [Example 23, (R)-7-[3-Amino-4-(2,4,5-trifluoro-phenyl)-butyryl]-3-trifluoromethyl-5,6,7,8-tetrahydro-imidazo[1,5-a]pyrazine-1-carboxylic acid ethyl ester hydrochloride]
0.033 µM | CC(C)OC(=O)OC(C)OC(=O)c1nc(C(F)(F)F)n2c1CN(C(=O)C[C@H](N)Cc1cc(F)c(F)cc1F)CC2 (stereo partly drawn) [Example 37, (R)-7-[3-Amino-4-(2,4,5-trifluoro-phenyl)-butyryl]-3-trifluoromethyl-5,6,7,8-tetrahydro-imidazo[1,5-a]pyrazine-1-carboxylic acid 1-isopropoxycarbonyloxy-ethyl ester hydrochloride]
0.314 µM | COC(=O)c1nc(C(F)(F)F)n2c1[C@H](C)N(C(=O)C[C@H](N)Cc1cc(F)c(F)cc1F)CC2 [Example 40, (R)-7-[3-Amino-4-(2,4,5-trifluoro-phenyl)-butyryl]-(S)-8-methyl-3-trifluoromethyl-5,6,7,8-tetrahydro-imidazo[1,5-a]pyrazine-1-carboxylic acid methyl ester hydrochloride]
0.184 µM | CC(OC(=O)OC1CCCCC1)OC(=O)c1nc(C(F)(F)F)n2c1CN(C(=O)C[C@H](N)Cc1cc(F)c(F)cc1F)CC2 (stereo partly drawn) [Example 38, (R)-7-[3-Amino-4-(2,4,5-trifluoro-phenyl)-butyryl]-3-trifluoromethyl-5,6,7,8-tetrahydro-imidazo[1,5-a]pyrazine-1-carboxylic acid (1-cyclohexyloxycarbonyloxy)-ethyl ester hydrochloride]
